According to PubChem BioAssay AID1963842 (Molecular Pharmacology Branch, DTP, NCI, 2024):

System: 677734-321-R-J1-PDC complex spheroid viability
Assay: Anticancer human tumor 677734-321-R-J1-PDC patient-derived soft tissue sarcoma cell line growth inhibition [POLQ]
Details: for IC50: curve of first compound; for viability, T/C: stronger effect = lower value
Procedure, shortened: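 Complex spheroid viability model combining PDC tumour cells with endothelial (HUVEC) and MSC stromal cells. Novobiocin, ART-558 or RP6685 were tested singly and in combination with standard and investigational anticancer drugs. Each was titrated in half-log steps from near clinical Cmax, or from 10 microM where Cmax was unknown.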

[1] = second compound 0.0316 µM, first compound 0.0316 µM
[2] = second compound 0.0316 µM, first compound 0.1 µM
[3] = second compound 0.0316 µM, first compound 0.316 µM
[4] = second compound 0.0316 µM, first compound 1 µM
[5] = second compound 0.0316 µM, first compound 3.16 µM
[6] = second compound 0.0316 µM, first compound 10 µM
[7] = second compound 0.1 µM, first compound 0.0316 µM
[8] = second compound 0.1 µM, first compound 0.1 µM
[9] = second compound 0.1 µM, first compound 0.316 µM
[10] = second compound 0.1 µM, first compound 1 µM
[11] = second compound 0.1 µM, first compound 3.16 µM
[12] = second compound 0.1 µM, first compound 10 µM
[13] = second compound 0.316 µM, first compound 0.0316 µM
[14] = second compound 0.316 µM, first compound 0.1 µM
[15] = second compound 0.316 µM, first compound 0.316 µM
[16] = second compound 0.316 µM, first compound 1 µM
[17] = second compound 0.316 µM, first compound 3.16 µM
[18] = second compound 0.316 µM, first compound 10 µM
[19] = second compound 1 µM, first compound 0.0316 µM
[20] = second compound 1 µM, first compound 0.1 µM
[21] = second compound 1 µM, first compound 0.316 µM
[22] = second compound 1 µM, first compound 1 µM
[23] = second compound 1 µM, first compound 3.16 µM
[24] = second compound 1 µM, first compound 10 µM
[25] = second compound 3.16 µM, first compound 0.0316 µM
[26] = second compound 3.16 µM, first compound 0.1 µM
[27] = second compound 3.16 µM, first compound 0.316 µM
[28] = second compound 3.16 µM, first compound 1 µM
[29] = second compound 3.16 µM, first compound 3.16 µM
[30] = second compound 3.16 µM, first compound 10 µM
[31] = second compound 10 µM, first compound 0.0316 µM
[32] = second compound 10 µM, first compound 0.1 µM
[33] = second compound 10 µM, first compound 0.316 µM
[34] = second compound 10 µM, first compound 1 µM
[35] = second compound 10 µM, first compound 3.16 µM
[36] = second compound 10 µM, first compound 10 µM
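Further: spheroids exposed to compounds for one week.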
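Wherever viability, T/C is given: 100% = vehicle DMSO treated spheroids.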

CC1COCCN1c1cc(-c2ccnn2C)c2ccnc(-c3ccn[nH]3)c2n1 (stereo unspecified) + COC1C(OC(N)=O)C(O)C(Oc2ccc3c(O)c(NC(=O)c4ccc(O)c(CC=C(C)C)c4)c(=O)oc3c2C)OC1(C)C
IC50 (second compound 0.0316 µM): 0.153 µM | IC50 (second compound 0.1 µM): 0.145 µM | IC50 (second compound 0.316 µM): 0.142 µM | IC50 (second compound 1 µM): 0.146 µM | IC50 (second compound 3.16 µM): 0.145 µM | IC50 (second compound 10 µM): 0.127 µM | viability, T/C [1]: 98.5% | viability, T/C [2]: 65.1% | viability, T/C [3]: 23.7% | viability, T/C [4]: 15.9% | viability, T/C [5]: 6.88% | viability, T/C [6]: 15.2% | viability, T/C [7]: 97.5% | viability, T/C [8]: 61.8% | viability, T/C [9]: 25.2% | viability, T/C [10]: 16.6% | viability, T/C [11]: 8.53% | viability, T/C [12]: 17.1% | viability, T/C [13]: 95.8% | viability, T/C [14]: 61.8% | viability, T/C [15]: 22.7% | viability, T/C [16]: 19.8% | viability, T/C [17]: 6.32% | viability, T/C [18]: 15.3% | viability, T/C [19]: 110% | viability, T/C [20]: 62.7% | viability, T/C [21]: 23.8% | viability, T/C [22]: 16.6% | viability, T/C [23]: 7.91% | viability, T/C [24]: 16.6% | viability, T/C [25]: 102% | viability, T/C [26]: 61.2% | viability, T/C [27]: 26.3% | viability, T/C [28]: 16.6% | viability, T/C [29]: 6.66% | viability, T/C [30]: 14.4% | viability, T/C [31]: 98.1% | viability, T/C [32]: 57.9% | viability, T/C [33]: 20.1% | viability, T/C [34]: 17.1% | viability, T/C [35]: 8.68% | viability, T/C [36]: 16.7%

O=C(Nc1ccc(O)c(NS(=O)(=O)c2ccc(F)cc2)c1)c1ccc(-c2ccccc2)cc1 + Nc1ccc(C#CCN(C(=O)Cc2ncc(C(F)(F)F)cc2C(F)(F)F)c2ccc(F)cc2)nn1
IC50 (second compound 0.0316 µM): 4.98 µM | IC50 (second compound 0.1 µM): 4.84 µM | IC50 (second compound 0.316 µM): 3.59 µM | IC50 (second compound 1 µM): 4.08 µM | IC50 (second compound 3.16 µM): 4.07 µM | IC50 (second compound 10 µM): 3.82 µM | viability, T/C [1]: 106% | viability, T/C [2]: 115% | viability, T/C [3]: 97% | viability, T/C [4]: 106% | viability, T/C [5]: 68.7% | viability, T/C [6]: 21.3% | viability, T/C [7]: 106% | viability, T/C [8]: 102% | viability, T/C [9]: 94% | viability, T/C [10]: 102% | viability, T/C [11]: 69.4% | viability, T/C [12]: 17.1% | viability, T/C [13]: 104% | viability, T/C [14]: 113% | viability, T/C [15]: 110% | viability, T/C [16]: 103% | viability, T/C [17]: 53.5% | viability, T/C [18]: 22.1% | viability, T/C [19]: 114% | viability, T/C [20]: 109% | viability, T/C [21]: 104% | viability, T/C [22]: 105% | viability, T/C [23]: 58.6% | viability, T/C [24]: 19.4% | viability, T/C [25]: 119% | viability, T/C [26]: 114% | viability, T/C [27]: 101% | viability, T/C [28]: 111% | viability, T/C [29]: 58.2% | viability, T/C [30]: 19.9% | viability, T/C [31]: 109% | viability, T/C [32]: 115% | viability, T/C [33]: 109% | viability, T/C [34]: 103% | viability, T/C [35]: 56.5% | viability, T/C [36]: 16.5%

C=CC(=O)N1CCN(c2nc(=O)n(-c3c(C)ccnc3C(C)C)c3nc(-c4c(O)cccc4F)c(F)cc23)C(C)C1 (stereo unspecified) + Cc1cccc(N(C)C(=O)C2C(O)CCN2c2nc(C)cc(C(F)(F)F)c2C#N)c1
IC50 (second compound 0.0316 µM): > 10 µM | IC50 (second compound 0.1 µM): > 10 µM | IC50 (second compound 0.316 µM): > 10 µM | IC50 (second compound 1 µM): > 10 µM | IC50 (second compound 3.16 µM): > 10 µM | IC50 (second compound 10 µM): > 10 µM | viability, T/C [1]: 108% | viability, T/C [2]: 99.5% | viability, T/C [3]: 103% | viability, T/C [4]: 104% | viability, T/C [5]: 110% | viability, T/C [6]: 88% | viability, T/C [7]: 105% | viability, T/C [8]: 104% | viability, T/C [9]: 101% | viability, T/C [10]: 107% | viability, T/C [11]: 102% | viability, T/C [12]: 93.4% | viability, T/C [13]: 106% | viability, T/C [14]: 105% | viability, T/C [15]: 103% | viability, T/C [16]: 103% | viability, T/C [17]: 113% | viability, T/C [18]: 92% | viability, T/C [19]: 109% | viability, T/C [20]: 94.9% | viability, T/C [21]: 107% | viability, T/C [22]: 104% | viability, T/C [23]: 108% | viability, T/C [24]: 85.5% | viability, T/C [25]: 101% | viability, T/C [26]: 100% | viability, T/C [27]: 105% | viability, T/C [28]: 108% | viability, T/C [29]: 108% | viability, T/C [30]: 81.8% | viability, T/C [31]: 105% | viability, T/C [32]: 100% | viability, T/C [33]: 98.6% | viability, T/C [34]: 103% | viability, T/C [35]: 81.1% | viability, T/C [36]: 80.1%
